In patent publication US8367678B2, “Treatment for spinal muscular atrophy” (Kaohsiung Medical University, priority 2008, dated 2013):

Columns and labels:
Type in all cases: cell-based, Human
SMA lymphoid cells [1] = assay: Intracellular pH by cytofluorometric SNARF-1 measurement; settings: 4 hours, untreated control about 7.40
Procedure: Thus, the intracellular pH lowering and cytotoxic effects of EIPA on SMA lymphoid cells were determined. The procedures of cytofluorometric measurement were modified from a published method (J Cell Physiol 1998; 177:109-122). Briefly, three million SMA lymphoid cells were treated with 0, 2, or 10 μM of EIPA in 3 ml of growth medium for 4 hours in a 37° C. CO2 incubator, washed in PBS and then incubated in PBS containing 5 μM of carboxy SNARF-1 AM, acetate (Molecular Probes) for 30 minutes at 37° C., also in the absence or presence of 2 or 10 μM EIPA. The SNARF-1 loaded cells collected by 200×g 10 minutes centrifugation were divided into 7 aliquots, 5 for the calibration standard curves and 2 for sample reading. […] The aliquots for sample reading were suspended in hepes-buffered pH 7.1 and pH 7.4 K^+-BSS, without or with EIPA addition, but in the absence of nigericin. After standing in the darkness at room temperature for 20 minutes, the SNARF-1 fluorescence measurement was performed in a cytofluorometer (FACSAria BD Biosciences) by excitation at 488 nm and fluorescent emissions at 580 (FL-2) and 640 nm (FL-3). The cytofluorometric data was analyzed by using FACSDiVa and CellQuest software to gate the major viable cell populations for producing a standard curve of the 640/580 nm fluorescence ratios (y-axis) versus the high-K BSS buffer pHs (x-axis) of nigericin-treated cells. […]

[2] = tested on: SRp20 in SMA lymphoid cell lines; assay: Levels of SR and hnRNP proteins by Western blotting and quantitative densitometry; settings: 10 μM EIPA (FIG. 3)
Procedure: SMA lymphoid cell lines were treated with various concentrations of EIPA for 24 hours and then the level of SMN protein by Western blotting and quantitative densitometry were measured. Protein extract preparation and western blot analysis were performed essentially as described previously (Proc Natl Acad Sci USA 2001; 98:9808-9813). Briefly, proteins were resolved by SDS-PAGE and transferred to a polyvinyl difluoride membrane (Millipore). The membrane was blocked with a 5% skim milk solution and then exposed to the appropriate concentrations of primary antibodies for 1 hour at room temperature. […] After washing with TBST (0.05% Tween 20 in TBS), the membrane was incubated for 1 hour with a secondary antibody at a 1:2500 dilution and then detected by ECL chemiluminescence kit (Amersham). Intensity of the signals was measured using LabWorks software (UVP). […]
SMA lymphoid cell lines were treated with EIPA and then the change in the levels of several SR and hnRNP proteins by Western blotting and quantitative densitometry was examined. The protein levels in cytoplasmic and nuclear fractions were also measured separately in order to gain information about subcellular distribution. […]

SMA lymphoid cells [3] = assay: Cell growth assay (cell counts at 120 hours); settings: 120 hours in vitro cultures, from dose response curve; read-out: concentration causing 50% growth inhibition of SMA lymphoid cells
Procedure: (§1) 2.5×10^5 lymphoid cells/0.5-ml/well in a 12-well dish were exposed to 0, 2, 5, 10, 20 or 50 μM of EIPA. Viability was determined by trypan blue dye exclusion at 24 hours. To determine the cell growth effect of EIPA, 2.5×10^5 lymphoid cells/0.5-ml/well in a 12-well dish were exposed to 0, 2, 5, 10, 20 or 50 μM of EIPA. 0.5-ml of fresh medium (without or with the same EIPA addition) was added at 72 hours and cell counts made at 120 hours. Referring to FIG. 6A, the cell viability remained at above 90% after treatment of 20 μM (or lower) EIPA for 24 hours, but was down to 60% in 50 WA EIPA medium. Additionally, Referring to FIG. 6B, from a dose response curve of 120 hours in vitro cultures, it was estimated that 8 μM of EIPA cause 50% growth inhibition of SMA lymphoid cells.

[4] = tested on: SMN protein in SMA lymphoid cell lines; assay: SMN protein level by Western blotting and quantitative densitometry; settings: 24 hours
Procedure: SMA lymphoid cell lines were treated with various concentrations of EIPA for 24 hours and then the level of SMN protein by Western blotting and quantitative densitometry were measured. Protein extract preparation and western blot analysis were performed essentially as described previously (Proc Natl Acad Sci USA 2001; 98:9808-9813). Briefly, proteins were resolved by SDS-PAGE and transferred to a polyvinyl difluoride membrane (Millipore). The membrane was blocked with a 5% skim milk solution and then exposed to the appropriate concentrations of primary antibodies for 1 hour at room temperature. The following primary antibodies were used: mouse monoclonal anti-SMN (BD Biosciences, 1:5,000), mouse monoclonal anti-SR 16H3 (Zymed, 1:500), mouse monoclonal anti-SRp20 (Zymed, 1:500), mouse monoclonal anti-hnRNP A 1 (Acris, 1:1000), mouse monoclonal anti-hnRNP A2/B1 (Acris, 1:1000), mouse monoclonal anti-Sam68 (Santa Cruz, 1:500), mouse monoclonal anti-SF2/ASF (Zymed, 1:2000), mouse monoclonal anti-Akt (Cell Signaling, 1:1000), mouse monoclonal anti-phosphorylated Akt (Cell Signaling, 1:1000), mouse monoclonal anti-α-tubulin (Abeam, 1:5000), and mouse monoclonal anti-β-tubulin (Santa Cruz, 1:2000). After washing with TBST (0.05% Tween 20 in TBS), the membrane was incubated for 1 hour with a secondary antibody at a 1:2500 dilution and then detected by ECL chemiluminescence kit (Amersham). Intensity of the signals was measured using LabWorks software (UVP). Referring to FIG. 2, in the cytoplasm, the SMN protein level of EIPA-treated SMA cell was 1.8-, 1.4-, and 2.6-fold higher than untreated cell lines. In the nucleus, the SMN protein level at 2, 10 and 50 μM EIPA was 2.2-, 2.0-, and 3.3-fold higher than untreated cell lines.

[5] = tested on: SMN2 exon 7 splicing in SMA lymphoid cell lines; assay: SMN2 exon 7-containing versus exon 7-lacking transcripts by RT-PCR and quantitative densitometry
Procedure: Human SMA lymphoid cell lines were treated with several 5-(N-ethyl-N-isopropyl)-amiloride and then the relative levels of SMN2 exon 7-containing versus exon 7-lacking transcripts by RT-PCR and quantitative densitometry (Proc Natl Acad Sci USA 2001; 98:9808-9813) were measured. Human lymphoblast cell lines were established from SMA patients with homozygous SMN1 deletion in our laboratory by Epstein-Barr virus transformation as described in Proc Natl Acad Sci USA 2001; 98:9808-9813. The cells were grown in RPMI-1640 medium supplemented with 2 mM L-glutamine, 10% fetal bovine serum (FBS), 100 units/ml penicillin and 100 μg/ml streptomycin at 37° C. in a humidified atmosphere containing 5% CO2. The SMA lymphoid cell lines derived from 6 SMA patients included 2 type I, 2 type II and 2 type III. The cells were treated with various concentrations of EIPA for 24 hours to determine the dosage effect and exposed to 10 μM of EIPA and harvested at different time intervals (2-24 hours). […] Thus, EIPA promoted SMN2 exon 7 inclusion in a dose-dependent and time-related manner in SMA cells.

SMA lymphoid cells [6] = assay: Cell viability by trypan blue dye exclusion; settings: 24 hours
Procedure: as §1

SMILES: CCN(c1nc(N)c(C(=O)N=C(N)N)nc1Cl)C(C)C [EIPA, 5-(N-ethyl-N-isopropyl)-amiloride]
- intracellular pH (pHi) (SMA lymphoid cells [1]; 2 μM EIPA): 7.15±0.10
- intracellular pH (pHi) (SMA lymphoid cells [1]; 10 μM EIPA): 7.03±0.15
- increase of the level of SRp20 in the nucleus [2]: approximately 4 fold
- IC50 (SMA lymphoid cells [3]): ~8 µM
- SMN protein level in the cytoplasm versus untreated cell lines ([4]; first listed concentration (2 μM EIPA)): 1.8 fold
- SMN protein level in the cytoplasm versus untreated cell lines ([4]; second listed concentration (10 μM EIPA)): 1.4 fold
- SMN protein level in the cytoplasm versus untreated cell lines ([4]; third listed concentration (50 μM EIPA)): 2.6 fold
- SMN protein level in the nucleus versus untreated cell lines ([4]; 2 μM EIPA): 2.2 fold
- SMN protein level in the nucleus versus untreated cell lines ([4]; 10 μM EIPA): 2.0 fold
- SMN protein level in the nucleus versus untreated cell lines ([4]; 50 μM EIPA): 3.3 fold
- ratio of SMN2 exon 7-containing to exon 7-lacking transcripts ([5]; 2 μM EIPA, 24 hours, SMA lymphoid cell lines): increased significantly
- ratio of SMN2 exon 7-containing to exon 7-lacking transcripts ([5]; 10 μM EIPA, 24 hours, SMA lymphoid cell lines): increased significantly
- ratio of SMN2 exon 7-containing to exon 7-lacking transcripts ([5]; 10 μM EIPA, at 4 hours after the treatment): significantly increased
- ratio of SMN2 exon 7-containing to exon 7-lacking transcripts ([5]; 50 μM EIPA, 24 hours, SMA lymphoid cell lines): increased significantly
- cell viability (SMA lymphoid cells [6]; 20 μM (or lower) EIPA): above 90%
- cell viability (SMA lymphoid cells [6]; 50 μM EIPA medium): 60%
